Among the data in patent US20250223301A1, “KINASE INHIBITORS, PREPARATION METHODS AND USES THEREOF” (InventisBio Co., Ltd., priority 2022, published 2025) are IC50 and EC50 values, retold here.

The term IC50 denotes the concentration needed to halve the response being measured. The low end stands for greater potency in that assay, the high end for weaker potency in that assay. The term EC50 denotes the concentration needed to bring the measured effect to its halfway point. Low values mean greater potency, high ones weaker potency.

Test [1] deals with T1, DGKa (Homo sapiens (Human), UniProt P23743).
Description: (§1) The DGKa and DGKz kinase assays were performed using Promega ADP-Glo kit (Promega, Cat #V9102). One microliter test compound was added to a 384-well plate. Reactions were performed in a 5 uL volume by adding 2 uL mixture of DGK enzyme and ATP in assay buffer (50 mM MOPS pH 7.5, 100 mM NaCl, 10 mM MgCl2, 1 mM CaCl2, 0.0025% BSA, and 1 mM DTT). […] The enzyme solution was incubated with test compound at 25 ? for 20 min. […] The reaction was initiated by the addition of 2 uL of substrate solution (7 uM 1.2-dioleoyl-sn-glycerol, 5 mM octyl-b-D-glucopyranoside) in the 5 uL assay volume. The resulting mixture was incubated at 25° C. for 40 minutes. Next, 5 uL of ADP-Glo-reagent was added to the plate and incubated for 40 minutes. Then 10 uL of kinase detection reagent was added and incubated for 30 minutes. Luminescence was recorded using an Tecan SPARK microplate reader. 1% DMSO vehicle was used as control and no enzyme well was used as blank well.
The target of the next test is DGKz (Homo sapiens (Human), UniProt Q13574). The experiment in a line: DGK ADP-Glo kinase assay (DGKz). It counts as biochemical. To be noted: 5 nM DGKz, 15 uM ATP. The method, then: Luminescence was recorded using an Tecan SPARK microplate reader.
On the technique in general: ADP-Glo first removes unused ATP, then detects ADP through luciferase.

The target in test [2] is T1, DGKa. Description: biochemical.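 Further: biochemical DGK kinase assay, ADP-Glo luminescence from ADP made by phosphorylating 1,2-dioleoyl-sn-glycerol, 20 min compound preincubation then 40 min reaction at 25 °C, 1% DMSO control.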
The subject of the next test is PBMC. Description: Human PBMC IL-2 assay. Type of test: cell-based. The settings on record: anti-CD3/CD28 stimulation overnight, IL-2 level. Summed up: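 Healthy-donor frozen PBMC were thawed, rested 4 h at 37 °C and plated at ~200,000 cells/well. Cells were preincubated 60 min at 37 °C with compound solution (10 uM to 0.6 nM, 8 points, 4-fold, as added), then stimulated overnight with anti-CD3/CD28. Supernatant IL-2 was quantified by immunoassay kit and plotted against log compound concentration.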
Description: as §1

The test system of another test is Jurkat cells. The experiment in a line: Jurkat IL-2 assay. It counts as cell-based. To be noted: Homo sapiens, anti-CD3/CD28 stimulation overnight, IL-2 level. In short, it runs like this:
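Cells in RPMI-1640 with 10% FBS received compound solution (5 uM to 2.3 nM, 8 points, 3-fold dilution) for 60 minutes at 37° C. They were then stimulated overnight at 37° C. with anti-CD3/CD28 antibody. IL-2 in the supernatant was quantified by immunoassay kit and plotted against log compound concentration.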

Where two headings read alike, the source gives them in different places. Some results are limits rather than exact numbers.

T1 sequence (P23743 whole entry): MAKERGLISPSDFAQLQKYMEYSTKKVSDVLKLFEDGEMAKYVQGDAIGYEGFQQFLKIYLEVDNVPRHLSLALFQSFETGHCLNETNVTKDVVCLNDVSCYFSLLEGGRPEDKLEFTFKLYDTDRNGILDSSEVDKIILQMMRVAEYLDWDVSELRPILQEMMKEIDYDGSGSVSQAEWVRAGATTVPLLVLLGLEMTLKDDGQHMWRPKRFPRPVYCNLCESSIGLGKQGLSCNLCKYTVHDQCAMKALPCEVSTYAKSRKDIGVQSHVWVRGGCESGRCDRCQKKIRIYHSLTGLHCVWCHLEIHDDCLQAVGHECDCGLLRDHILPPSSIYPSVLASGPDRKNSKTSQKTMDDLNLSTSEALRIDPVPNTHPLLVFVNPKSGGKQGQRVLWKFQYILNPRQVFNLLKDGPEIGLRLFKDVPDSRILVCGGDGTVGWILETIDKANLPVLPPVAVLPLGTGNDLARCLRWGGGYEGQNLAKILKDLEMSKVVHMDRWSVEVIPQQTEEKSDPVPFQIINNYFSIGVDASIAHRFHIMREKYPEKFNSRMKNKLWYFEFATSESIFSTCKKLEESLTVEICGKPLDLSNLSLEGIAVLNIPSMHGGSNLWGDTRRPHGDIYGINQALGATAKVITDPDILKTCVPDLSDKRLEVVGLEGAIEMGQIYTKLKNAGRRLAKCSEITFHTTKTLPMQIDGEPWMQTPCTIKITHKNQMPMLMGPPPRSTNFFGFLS
Sequence of DGKz (Q13574 whole entry): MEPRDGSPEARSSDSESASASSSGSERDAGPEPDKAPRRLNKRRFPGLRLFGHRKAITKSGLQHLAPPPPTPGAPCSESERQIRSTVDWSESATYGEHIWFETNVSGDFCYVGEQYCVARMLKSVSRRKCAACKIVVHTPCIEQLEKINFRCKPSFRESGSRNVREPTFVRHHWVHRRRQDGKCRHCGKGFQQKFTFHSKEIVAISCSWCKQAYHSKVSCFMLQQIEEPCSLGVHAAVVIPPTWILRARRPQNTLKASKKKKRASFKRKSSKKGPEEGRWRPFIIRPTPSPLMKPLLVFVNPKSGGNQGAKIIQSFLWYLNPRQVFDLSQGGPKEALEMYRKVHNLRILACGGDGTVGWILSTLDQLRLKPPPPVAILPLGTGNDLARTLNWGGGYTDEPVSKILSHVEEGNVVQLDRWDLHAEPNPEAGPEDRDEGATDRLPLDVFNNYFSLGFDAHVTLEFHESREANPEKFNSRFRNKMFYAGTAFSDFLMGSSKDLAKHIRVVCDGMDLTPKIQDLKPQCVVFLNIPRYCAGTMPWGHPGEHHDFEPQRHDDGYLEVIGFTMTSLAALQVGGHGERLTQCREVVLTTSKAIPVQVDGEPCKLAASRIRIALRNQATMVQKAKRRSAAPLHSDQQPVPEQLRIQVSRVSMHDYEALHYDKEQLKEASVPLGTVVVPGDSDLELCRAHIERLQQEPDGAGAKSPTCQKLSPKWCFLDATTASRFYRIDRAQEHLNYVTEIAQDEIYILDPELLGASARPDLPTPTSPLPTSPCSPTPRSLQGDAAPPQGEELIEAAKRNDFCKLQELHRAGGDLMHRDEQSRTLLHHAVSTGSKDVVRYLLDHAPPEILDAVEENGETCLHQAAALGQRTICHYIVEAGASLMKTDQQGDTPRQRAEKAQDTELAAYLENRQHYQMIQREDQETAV

Turning to `CC[C@H]1CN([C@@H](CC)c2ccc(OC)cc2F)[C@H](CC)CN1c1nc2nncn2c2ccc(C#N)nc12` (stereo in doubt) [Compound 115], the IC50 on DGKa [1] is 3 nM; on DGKz, 8 nM.
In the same order, the values of `CC[C@H]1CN([C@H](CC)c2ccc(OC)cc2F)[C@H](CC)CN1c1nc2nncn2c2ccc(C#N)nc12` (stereo in doubt) [Compound 116] are 14 nM and 347 nM.
As for `CC[C@H]1CN([C@H](c2ccc(S(F)(F)(F)(F)F)cc2)C2CC2)[C@H](CC)CN1c1nc(=O)n(C)c2ccc(C#N)nc12` (stereo in doubt) [Compound 117], the values for the IC50 against DGKa [2] and against DGKz were 18 nM and 200 nM, respectively.
With `CC[C@H]1CN([C@@H](c2ccc(S(F)(F)(F)(F)F)cc2)C2CC2)[C@H](CC)CN1c1nc(=O)n(C)c2ccc(C#N)nc12` (stereo in doubt) [Compound 118], the values for the IC50 at DGKa [2] and at DGKz were 22 nM and 610 nM, respectively.
Regarding `Cn1c(=O)nc(N2CCC3(CCN(c4ccc(OC(F)(F)F)cc4)C3)CC2)c2nc(C#N)ccc21` [Compound 8], the IC50 against DGKa [1] stood at 579 nM; on DGKz, 547 nM.
As to `Cc1ccccc1-n1cc(C2CCN(c3nc(=O)n(C)c4ccc(C#N)nc34)CC2)cn1` [Compound 12], the IC50 was 6600 nM against DGKa [1] and > 10000 nM against DGKz.
`Cn1c(=O)c(C(N)=O)c(N2CCC3(CN(c4ccc(OC(F)(F)F)cc4)C3)C2)c2nc(C#N)ccc21` [Compound 15]: the IC50 is 19 nM against DGKa [1] and > 10000 nM against DGKz.
Consider `CC[C@@H]1C[C@H](Oc2ccc(OC(F)(F)F)cc2)CCN1c1nc(=O)n(C)c2ccc(C#N)nc12` [Compound 16], for which the IC50 at DGKa [2] was determined as 926 nM; against DGKz, 58 nM.
Turning to `CC[C@H]1C[C@@H](Oc2ccc(OC(F)(F)F)cc2)CCN1c1nc(=O)n(C)c2ccc(C#N)nc12` [Compound 17], the IC50 against DGKa [2] amounted to 53 nM; against DGKz, 212 nM. It took 401 nM to reach a half-maximal effect in the test on PBMC (EC50).
Consider `Cc1ccc2oc(C3CCN(c4nc(=O)n(C)c5ccc(C#N)nc45)CC3)nc2c1` [Compound 20], for which the IC50 was found to be 1160 nM at DGKa [1] and 1840 nM against DGKz.
On the same counts, the results for `Cc1ccc2oc(C3CCN(c4nc(=O)n(C)c5ccc6nncn6c45)CC3)nc2c1` [Compound 22] are 5 nM and > 10000 nM.
Take `CC[C@H]1CN([C@H](CC)c2ccc(S(F)(F)(F)(F)F)cc2)[C@H](CC)CN1c1nc(=O)n(C)c2ccc(C#N)nc12` [Compound 29]: the half-inhibitory concentration (IC50) was 14 nM at DGKa [2] and 55 nM on DGKz.
As for `Cc1ccc2oc(C3CCN(c4nc(=O)n(C)c5cc(O[C@@H]6CCOC6)c(Cl)cc45)CC3)nc2c1` [Compound 32], the IC50 on DGKa [2] was 9 nM; on DGKz it was > 10000 nM.
With `Cc1ccc2oc(C3CCN(c4nc(=O)n(C)c5cc(O[C@H]6CCOC6)c(Cl)cc45)CC3)nc2c1` [Compound 33], the IC50 is 2 nM against DGKa [2] and 60 nM against DGKz.
Turning to `CC[C@H]1CN([C@H](CC)c2ccc(C(F)(F)F)cc2)[C@H](CC)CN1c1nc2nncn2c2ccc(C#N)nc12` [Compound 35], the IC50 at DGKa [1] was 16 nM; against DGKz, 224 nM.
On the same counts, the results for `Cn1c(=O)nc(N2CCC3(CC2)COC(c2ccc(OC(F)(F)F)cc2)=N3)c2nc(Cl)ccc21` [Compound 37] are 17 nM and 475 nM.
For `Cn1c(=O)nc(N2CCCc3c(C#CC4CC4)cccc32)c2nc(C#N)ccc21` [Compound 39], the values for the IC50 at DGKa [2] and against DGKz were 1 nM and 2050 nM, respectively.
On to `Cn1c(=O)nc(N2CCCc3c(C#CC4CC4)cccc32)c2nc(C#N)ccc21` [Compound 42], for which the IC50 against DGKa [1] is 3 nM; against DGKz, 311 nM.
`CC[C@H]1CN([C@H]2CCCCc3cc(C(F)(F)F)ccc32)[C@H](CC)CN1c1nc(=O)n(C)c2ccc(C#N)nc12` [Compound 44]: the IC50 on DGKa [2] was determined as 40 nM; on DGKz, 315 nM.
Consider `CC[C@H]1CN([C@@H]2CCCCc3cc(C(F)(F)F)ccc32)[C@H](CC)CN1c1nc(=O)n(C)c2ccc(C#N)nc12` [Compound 45], for which the IC50 against DGKa [2] worked out at 245 nM; against DGKz, 45 nM. Besides, the EC50 with Jurkat cells was determined as 858 nM.
Take `CN(c1cccc(C#CC2CC2)c1)c1nc(=O)n(C)c2ccc(C#N)nc12` [Compound 46]: the IC50 against DGKa [1] was determined as 5 nM; against DGKz, 324 nM.
With `Cn1c(=O)nc(N2CCC3(CC2)CC(c2cccc(C(F)(F)F)c2)=NO3)c2nc(C#N)ccc21` [Compound 47], the IC50 against DGKa [1] came to 12 nM; at DGKz, 36 nM.
Take `N#Cc1ccc2c(n1)c(N1CCC3(CC1)CC(c1ccc(C(F)(F)F)cc1)=NO3)nc1nncn12` [Compound 53]: the IC50 on DGKa [1] turned out to be 85 nM; against DGKz it was 185 nM.
For `N#Cc1ccc2c(n1)c(N1CCC3(CC1)CC(c1ccc(SC(F)(F)F)cc1)=NO3)nc1nncn12` [Compound 54], the IC50 at DGKa [1] was determined as 29 nM; against DGKz, 248 nM.
With `CC[C@H]1CN([C@H](c2ccc(SC(F)(F)F)cc2)c2nc(C3CC3)cs2)[C@H](CC)CN1c1nc(=O)n(C)c2ccc(C#N)nc12` [Compound 57], the IC50 came to 24 nM at DGKa [2] and 607 nM against DGKz.
On to `CC[C@H]1CN([C@@H](c2ccc(SC(F)(F)F)cc2)c2nc(C3CC3)cs2)[C@H](CC)CN1c1nc(=O)n(C)c2ccc(C#N)nc12` [Compound 58], for which the IC50 turned out to be 9 nM at DGKa [2] and 367 nM against DGKz.
Turning to `N#Cc1cc2c3c(n1)c(N1CCC4(CC1)CC(c1ccc(OC(F)(F)F)cc1)=NO4)nc(=O)n3CCO2` [Compound 59], the IC50 came to 28 nM on DGKa [2] and 162 nM on DGKz.
Take `CC[C@H]1CN(C(c2ccc(S(F)(F)(F)(F)F)cc2)c2nc(C3CC3)no2)[C@H](CC)CN1c1nc(=O)n(C)c2ccc(C#N)nc12` (stereo partly drawn) [Compound 64]: the IC50 against DGKa [1] was 10 nM; on DGKz, 55 nM.
In the case of `CC[C@@H]1CN(c2nc(=O)n(C)c3ccc(C#N)nc23)[C@@H](C)CN1C(c1ccc(S(F)(F)(F)(F)F)cc1)c1nc(C2CC2)no1` (stereo partly drawn) [Compound 65], the IC50 against DGKa [2] amounted to 14 nM; at DGKz, 59 nM.
For `CC[C@@H]1CN(c2nc(=O)n(C)c3ccc(C#N)nc23)[C@@H](C)CN1[C@@H](c1ccc(F)cc1)c1ccc(SC(F)(F)F)cn1` [Compound 72], the results for the half-inhibitory concentration (IC50) at DGKa [1] and against DGKz were 13 nM and 33 nM, respectively.
For `CC[C@@H]1CN(c2nc(=O)n(C)c3ccc(C#N)nc23)[C@@H](C)CN1[C@H](c1ccc(F)cc1)c1ccc(SC(F)(F)F)cn1` [Compound 73], the values for the IC50 against DGKa [2] and at DGKz were 15 nM and 58 nM, respectively.
With `CC[C@H]1CN(C(CO)c2ccc(S(F)(F)(F)(F)F)cc2)[C@H](CC)CN1c1nc(=O)n(C)c2ccc(C#N)nc12` (stereo partly drawn) [Compound 77], the IC50 against DGKa [1] came to 32 nM; against DGKz it was 81 nM.
Turning to `CC[C@H]1CN(C(COC)c2ccc(S(F)(F)(F)(F)F)cc2)[C@H](CC)CN1c1nc(=O)n(C)c2ccc(C#N)nc12` (stereo partly drawn) [Compound 78], the IC50 is 19 nM at DGKa [1] and 41 nM against DGKz.
On to `CC[C@@H]1CN(c2nc3nncn3c3ccc(C#N)nc23)[C@@H](CC)CN1C(=O)c1ccc(C(F)(F)F)cc1` [Compound 84], for which the IC50 was 9 nM against DGKa [2] and 1160 nM at DGKz.
As to `CC[C@@H]1CN(c2nc3nncn3c3ccc(C#N)nc23)[C@@H](CC)CN1C(=O)Cc1ccc(C(F)(F)F)cc1` [Compound 85], the figures for the IC50 at DGKa [2] and on DGKz were 18 nM and 770 nM, respectively.
In the same order, the values of `CC[C@H]1CN([C@H](CC)c2ccc(S(F)(F)(F)(F)F)cc2)[C@H](CC)CN1c1nc2nncn2c2ccc(C#N)nc12` [Compound 87] are 2 nM and 93 nM.
Regarding `CC[C@@H]1C[C@H](c2nc3cc(C)ccc3o2)CCN1c1nc(=O)n(C)c2cc(O[C@H]3CCOC3)c(Cl)cc12` [Compound 91], the IC50 came out at 29 nM on DGKa [2] and 6060 nM against DGKz.
`CC[C@@H]1C[C@H](c2nc3cc(C)ccc3o2)CCN1c1nc(=O)n(C)c2cc(O[C@@H]3CCOC3)c(Cl)cc12` [Compound 92]: the IC50 against DGKa [2] worked out at 227 nM; at DGKz, 6 nM.
Consider `CC[C@@H]1CN(c2nc3nncn3c3ccc(C#N)nc23)[C@@H](CC)CN1C(=O)Nc1ccc(C(F)(F)F)cc1` [Compound 95], for which the IC50 amounted to 58 nM against DGKa [1] and 303 nM on DGKz.
`CC[C@H]1CN([C@H](c2ccc(S(F)(F)(F)(F)F)cc2)c2nc(C3CC3)cs2)[C@H](CC)CN1c1nc(=O)n(C)c2ccc(C#N)nc12` [Compound 98]: the values for the IC50 against DGKa [1] and against DGKz were 10 nM and 40 nM, respectively.
As for `CC[C@H]1CN([C@@H](c2ccc(S(F)(F)(F)(F)F)cc2)c2nc(C3CC3)cs2)[C@H](CC)CN1c1nc(=O)n(C)c2ccc(C#N)nc12` [Compound 99], the IC50 at DGKa [1] came to 4 nM; against DGKz it was 22 nM.
As for `CCC(c1ccc(C23CC(C2)C3)nc1)N1C[C@H](CC)N(c2nc3nncn3c3ccc(C#N)nc23)C[C@H]1CC` (stereo partly drawn) [Compound 104], the 50% inhibitory concentration (IC50) against DGKa [1] came out at 18 nM; against DGKz it was 41 nM.
For the compound `CC[C@@H]1CN2c3c(c(=O)n(C)c4ccc(C#N)nc34)OC[C@@H]2CN1[C@@H](CC)c1ccc(SC(F)(F)F)cc1` [Compound 123], the IC50 at DGKa [2] is 78 nM; on DGKz, 798 nM.
For `CC[C@@H]1CN2c3c(c(=O)n(C)c4ccc(C#N)nc34)OC[C@@H]2CN1[C@H](CC)c1ccc(SC(F)(F)F)cc1` [Compound 124], the IC50 against DGKa [2] was found to be 6 nM; at DGKz, 114 nM.
